Data reported in US12612395B2, “Rocaglate derivatives and uses thereof” (TRUSTEES OF BOSTON UNIVERSITY, priority 2023, dated 2026).

Tested on: GBM0308 cells (CSCs)
Assay: Annexin V/PI flow cytometry apoptosis assay
Assay type: cell-based, human
Details: 1 μM, 12 h and 24 h
Protocol: To gain additional mechanistic insights into GBM cell death induced by (−)-20, the inventors conducted several functional assays. The inventors first derived a single neurosphere from GBM0308 cells cultured in stem cell conditions, which was treated with either DMSO or (−)-20 at varying doses for three days followed by staining with PI and Hoechst dyes and subsequent imaging. […] To capture the kinetics of apoptotic events, the inventors employed caspase 3/7 staining of GBM0308 neurospheres treated with either DMSO or (−)-20 and subsequently evaluated at three timepoints over a 48-hour period. […] (FIG. 5B).
Apoptosis Assays: For the Caspase 3/7 assay single neurospheres were generated as described above. On day four, neurospheres were treated with compound (−)-20. Apoptosis in treated tumorspheres was assessed using Nexcelom's ViaStain™ Live Caspase 3/7 Detection kit (Nexcelcom, CS1-V0002-1). […] Plates were imaged using the “neurosphere 1+Mask” application to measure fluorescent intensities of the caspase dye, as described previously.^70 Apoptosis was quantified using the FITC Annexin V apoptosis detection kit II (Invitrogen). […] At 12 h and 24 h after treatment, neurospheres were gently dissociated by using trypsin 0.025%, stained with PI and FITC and analyzed by flow cytometery using a Bio-Rad ZE5 Cell Analyzer.

## COc1cc(OC)c2c(c1)O[C@@]1(c3ccc(Br)cc3)[C@H](c3ccccc3)[C@@H](C(=O)NS(=O)(=O)N(C)C)[C@@H](O)[C@@]21O [(−)-20, (1R,2R,3S,3aR,8bS)-3a-(4-bromophenyl)-N—(N,N-dimethylsulfamoyl)-1,8b-dihydroxy-6,8-dimethoxy-3-phenyl-2,3,3a,8b-tetrahydro-1H-cyclopenta[b]benzofuran-2-carboxamide]
  Annexin V/PI staining (apoptosis): induced apoptosis
